Reference: patent publication US9512114B2, “Substituted aminopyrimidine compounds and methods of use” (Calitor Sciences, LLC, priority 2013, dated 2016)

Key:
[1] = Compound stability in rat liver microsomes; assay type: in vitro ADME; settings: pH 7.4; for CLint scaled at 5 μM: liver microsomes, in vivo CLint extrapolated from rat liver microsome incubation; for half-life at 5 μM: rat liver microsomes 0.5 mg protein/mL, compound 5 μM, NADPH 1.0 mM, 37° C., read-out: Rat T1/2
Method: (§1) The LC/MS/MS system used in the analysis consists of an Agilent 1200 Series vacuum degasser, binary pump, well-plate autosampler, thermostatted column compartment, the Agilent G6430 Triple Quadrupole Mass Spectrometer with an electrosprayionization (ESI) source. Quantitative analysis was carried out using MRM mode. The parameters for MRM transitions are in the Table A.
(§2) An Agilent XDB-C18, 2.1×30 mm, […] column was used for the analysis. 5 μL of the samples were injected. Analysis condition: The mobile phase was 0.1% formic acid in water (A) and 0.1% formic acid in methanol (B). The flow rate was 0.4 mL/min. And the gradient of Mobile phase was in the Table B.
(§3) Alternatively, an Agilent 6330 series LC/MS/MS spectrometer equipped with G1312A binary pumps, a G1367A autosampler and a G1314C UV detector were used in the analysis. An ESI source was used on the LC/MS/MS spectrometer. The analysis was done in positive ion mode as appropriate and the MRM transition for each analyte was optimized using standard solution. A Capcell MP-C18 100×4.6 mm I.D., […] column (Phenomenex, Torrance, Calif., USA) was used during the analysis. The mobile phase was 5 mM ammonia acetate, 0.1% MeOH in water (A): 5 mM ammonia acetate, 0.1% MeOH in acetonitrile (B) (70:30, v/v). The flow rate was 0.6 mL/min. Column was maintained at ambient temperature. 20 μL of the samples were injected.
(§4) Human or rat liver microsomes incubations were conducted in duplicate in polypropylene tubes. The typical incubation mixtures consisted of human or rat liver microsomes (0.5 mg protein/mL), compounds of interest (5 μM) and NADPH (1.0 mM) in a total volume of 200 μL potassium phosphate buffer (PBS, 100 mM, pH 7.4). Compounds were dissolved in DMSO and diluted with PBS such that the final concentration of DMSO was 0.05%. The enzymatic reactions were commenced with the addition of protein after a 3-min preincubation and incubated in a water bath open to the air at 37° C. Reactions were terminated at various time points (0, 5, 10, 15, 30, 60 min) by adding equal volume of ice-cold acetonitrile. The samples were stored at −80° C. until LC/MS/MS assays.
(§5) The concentrations of compounds in the incubation mixtures of human or rat liver microsomes were determined by a LC/MS/MS method. The ranges of the linearity in the concentration range were determined for each tested compounds.
(§6) A parallel incubation was performed using denatured microsomes as the negative control, and reactions were terminated at various time points (0, 15, 60 min) after incubation at 37° C.
(§7) Dextromethorphan (70 μM) was selected as the positive control, and reactions were terminated at various time points (0, 5, 10, 15, 30, 60 min) after incubation at 37° C. Both positive and negative control samples were included in each assay to ensure the integrity of the microsomal incubation system.
(§8) The concentrations of compounds in human or rat liver microsome incubations were plotted as a percentage of the relevant zero time point control for each reaction. The in vivo CLint were extrapolated (ref.: Naritomi, Y.; Terashita, S.; Kimura, S.; Suzuki, A.; Kagayama, A.; and Sugiyama, Y.; Prediction of human hepatic clearance from in vivo animal experiments and in vitro metabolic studies with liver microsomes from animals and humans. Drug Metab. Dispos., 2001, 29: 1316-1324).

[2] = Compound stability in human liver microsomes; assay type: in vitro ADME; settings: pH 7.4; for CLint scaled at 5 μM: liver microsomes, in vivo CLint extrapolated from human liver microsome incubation; for half-life at 5 μM: human liver microsomes 0.5 mg protein/mL, compound 5 μM, NADPH 1.0 mM, 37° C., read-out: Human T1/2
Method: as §1, §2, §3, §4, §5, §6, §7, §8

[3] = Pharmacokinetic profiles in rats; assay type: in vivo, rat; settings: for Cl/F / AUC(0-t) / half-life / Vd: iv dosing 1 mg/kg; for F: oral vs iv (iv 1 mg/kg; p.o. generally 5 or 10 mg/kg); for AUC(0-t) / half-life / Vd: rat, plasma; for Vd: read-out: Vss
Method: The compounds disclosed herein are assessed in pharmacokinetic studies in mice, rats, dogs or monkeys. The compounds are administered as a water solution, 2% HPMC+1% TWEEN®80 in water solution, 5% DMSO+5% solutol in saline, 4% MC suspension or capsule. For the intravenous administration, the animals are generally given at 1 or 2 mg/kg dose. For the oral (p.o.) dosing, mice and rats are generally given 5 or 10 mg/kg dose, and dogs and monkeys are generally given 10 mg/kg dose. The blood samples (0.3 mL) are drawn at 0.25, 0.5, 1.0, 2.0, 3.0, 4.0, 6.0, 8.0, 12 and 24 h time points or 0.083, 0.25, 0.5, 1.0, 2.0, 4.0, 6.0, 8.0 and 24 h time points and centrifuged at 3,000 or 4000 rpm for 2 to 10 min. The plasma solutions are collected, stored at −20° C. or −70° C. until analyzed by LC/MS/MS as described above.

Work on `CC[C@H](Nc1ncnc(N)c1-c1nc(C)no1)c1cc2cccc(Cl)c2c(=O)n1-c1ccccc1` [Ex. 3, (S)-3-(1-((6-amino-5-(3-methyl-1,2,4-oxadiazol-5-yl)pyrimidin-4-yl)amino)propyl)-8-chloro-2-phenylisoquinolin-1(2H)-one] yielded a CLint scaled at 5 μM [1] of 148 mL/min/kg, a half-life at 5 μM [1] of 16.7 min and a CLint scaled at 5 μM [2] of 134 mL/min/kg. The half-life at 5 μM [2] was 12.9 min, the Cl/F [3] was 7.68 L/h/kg and the F [3] was 12.71%. It also gave an AUC(0-t) [3] of 131 ng·h/mL, a half-life [3] of 44.4 min and a Vd [3] of 4.96 L/kg.

`CC[C@H](Nc1ncnc(N)c1-c1nnn(C)n1)c1cc2cccc(Cl)c2c(=O)n1C1CC1` [Ex. 13, (S)-3-(1-((6-amino-5-(2-methyl-2H-tetrazol-5-yl)pyrimidin-4-yl)amino)propyl)-8-chloro-2-cyclopropylisoquinolin-1(2H)-one] gave a CLint scaled at 5 μM [1] of 137 mL/min/kg, a half-life at 5 μM [1] of 18.2 min and a CLint scaled at 5 μM [2] of 157 mL/min/kg. It also gave a half-life at 5 μM [2] of 11.1 min, a Cl/F [3] of 2.17 L/h/kg and an F [3] of 67.9%. The AUC(0-t) [3] was 465 ng·h/mL, the half-life [3] was 99.6 min and the Vd [3] was 4.42 L/kg.

For `CC[C@H](Nc1ncnc(N)c1-c1nnc(C)o1)c1cc2cccc(C)c2c(=O)n1C1CC1` [Ex. 6, (S)-3-(1-((6-amino-5-(5-methyl-1,3,4-oxadiazol-2-yl)pyrimidin-4-yl)amino)propyl)-2-cyclopropyl-8-methylisoquinolin-1(2H)-one], the CLint scaled at 5 μM [1] was 324 mL/min/kg, the half-life at 5 μM [1] was 7.66 min and the CLint scaled at 5 μM [2] was 93.1 mL/min/kg. The half-life at 5 μM [2] was 18.7 min, the Cl/F [3] was 3.74 L/h/kg and the F [3] was 48.66%. It also gave an AUC(0-t) [3] of 266 ng·h/mL, a half-life [3] of 51.6 min and a Vd [3] of 4.08 L/kg.

`CC[C@H](Nc1ncnc(N)c1-c1ncn(C)n1)c1cc2cccc(Cl)c2c(=O)n1C1CC1` [Ex. 20, (S)-3-(1-((6-amino-5-(1-methyl-1H-1,2,4-triazol-3-yl)pyrimidin-4-yl)amino)propyl)-8-chloro-2-cyclopropylisoquinolin-1(2H)-one] gave a CLint scaled at 5 μM [1] of 100 mL/min/kg, a half-life at 5 μM [1] of 24.9 min and a CLint scaled at 5 μM [2] of 251 mL/min/kg. The half-life at 5 μM [2] was 6.93 min, the Cl/F [3] was 2.92 L/h/kg and the F [3] was 64.61%. For the same compound, the AUC(0-t) [3] was 341 ng·h/mL, the half-life [3] was 48.6 min and the Vd [3] was 2.65 L/kg.

`CCCCOC(=O)c1nc(-c2c(N)ncnc2N[C@@H](CC)c2cc3cccc(Cl)c3c(=O)n2C2CC2)nn1C` [Ex. 14, (S)-butyl 3-(4-amino-6-((1-(8-chloro-2-cyclopropyl-1-oxo-1,2-dihydro-isoquinolin-3-yl)propyl)amino)pyrimidin-5-yl)-1-methyl-1H-1,2,4-triazole-5-carboxylate] showed a CLint scaled at 5 μM [1] of 125 mL/min/kg, a half-life at 5 μM [1] of 19.9 min and a CLint scaled at 5 μM [2] of 225 mL/min/kg. It also gave a half-life at 5 μM [2] of 7.73 min.

In the case of `C[C@H](Nc1ncnc(N)c1-c1nnn(C)n1)c1cc2cccc(-c3cnn(C)c3)c2c(=O)n1C1CC1` [Ex. 33, (S)-3-(1-((6-amino-5-(2-methyl-2H-tetrazol-5-yl)pyrimidin-4-yl)amino)ethyl)-2-cyclopropyl-8-(1-methyl-1-pyrazol-4-yl)isoquinolin-1 (2H)-one], the CLint scaled at 5 μM [1] was 26.7 mL/min/kg, the half-life at 5 μM [1] was 92.9 min and the CLint scaled at 5 μM [2] was 28.4 mL/min/kg. The half-life at 5 μM [2] was 61.3 min, the Cl/F [3] was 0.76 L/h/kg and the F [3] was 163.6%. For the same compound, the AUC(0-t) [3] was 1300 ng·h/mL, the half-life [3] was 97.2 min and the Vd [3] was 1.9 L/kg.

In the case of `Cc1noc(-c2c(N)ncnc2N[C@@H](C)c2cc3cccc(Cl)c3c(=O)n2-c2cccc(F)c2)n1` [Ex. 23, (S)-3-(1-((6-amino-5-(3-methyl-1,2,4-oxadiazol-5-yl)pyrimidin-4-yl)amino)ethyl)-8-chloro-2-(3-fluorophenyl)isoquinolin-1(2H)-one], the CLint scaled at 5 μM [1] was 456 mL/min/kg, the half-life at 5 μM [1] was 5.45 min and the CLint scaled at 5 μM [2] was 479 mL/min/kg. The half-life at 5 μM [2] was 3.63 min.

Work on `CC[C@H](Nc1ncnc(N)c1-c1noc(C)n1)c1cc2cccc(Cl)c2c(=O)n1C1CC1` [Ex. 21, (S)-3-(1-((6-amino-5-(5-methyl-1,2,4-oxadiazol-3-yl)pyrimidin-4-yl)amino)propyl)-8-chloro-2-cyclopropylisoquinolin-1(2H)-one] yielded a CLint scaled at 5 μM [1] of 130 mL/min/kg, a half-life at 5 μM [1] of 19.2 min and a CLint scaled at 5 μM [2] of 258 mL/min/kg. The half-life at 5 μM [2] was 6.73 min.
